Test results published in patent publication US20200367818A1, “DEVICES, SYSTEMS, AND METHODS FOR TUMOR VISUALIZATION AND REMOVAL” (UNIVERSITY HEALTH NETWORK, priority 2018, published 2020).
Where a name gives a salt, the structure may show the parent alone.

Tested on: invasive breast carcinoma lumpectomy/mastectomy specimens and lymph nodes
Assay: 5-ALA breast study: PpIX fluorescence imaging of breast tumor specimens and lymph nodes with handheld device (405 nm excitation)
Format: in vivo, human
Conditions: multispectral or multiband fluorescence imaging with 5-ALA
Description: In one example, oral 5-ALA was dissolved in water and administered by a study nurse between 2-4 h before surgery in patients at dosages of 15 or 30 mg/kg 5-ALA.
By viewing lymph nodes prior to removal from the subject's body, it is possible to observe, using the device 100, red fluorescence emissions from cells containing induced porphyrins that are within the lymph node.
When combined with 5-ALA red FL, the differing emission spectra of normal tissue AF and PpIX are easily distinguishable visually (see FIGS. 15 and 16). […] The 405 nm excitation LEDs and the dual band emission filter (500-545 nm and 600-660 nm) are suitable for breast tumor imaging using 5-ALA because they provide a composite image comprised of red PpIX and green connective tissue FL, and broad green-to-red FL of adipose tissue (appears pink).

Compound: NCC(=O)CCC(=O)O [5-ALA, Aminolevulinic acid hydrochloride]
- depth below the imaged tissue surface at which otherwise clinically occult disease is detected: ≤ 2.6 mm
